Results on 24 compounds are retold here after patent publication US20250346585A1 (Alexion Pharmaceuticals, Inc., priority 2022, published 2025).

pIC50: −log10 of the molar value.

Human complement C1s enzyme, sequence (P09871 438-688 limits assumed): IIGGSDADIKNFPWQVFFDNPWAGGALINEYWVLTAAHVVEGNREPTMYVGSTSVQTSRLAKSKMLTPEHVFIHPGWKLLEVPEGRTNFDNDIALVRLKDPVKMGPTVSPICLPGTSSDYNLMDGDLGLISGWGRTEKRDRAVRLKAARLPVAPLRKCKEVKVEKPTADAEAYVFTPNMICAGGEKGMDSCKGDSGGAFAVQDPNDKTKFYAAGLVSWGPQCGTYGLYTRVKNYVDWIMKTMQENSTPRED
Human complement C1s enzyme, sequence (P09871 16-437 partner limits assumed): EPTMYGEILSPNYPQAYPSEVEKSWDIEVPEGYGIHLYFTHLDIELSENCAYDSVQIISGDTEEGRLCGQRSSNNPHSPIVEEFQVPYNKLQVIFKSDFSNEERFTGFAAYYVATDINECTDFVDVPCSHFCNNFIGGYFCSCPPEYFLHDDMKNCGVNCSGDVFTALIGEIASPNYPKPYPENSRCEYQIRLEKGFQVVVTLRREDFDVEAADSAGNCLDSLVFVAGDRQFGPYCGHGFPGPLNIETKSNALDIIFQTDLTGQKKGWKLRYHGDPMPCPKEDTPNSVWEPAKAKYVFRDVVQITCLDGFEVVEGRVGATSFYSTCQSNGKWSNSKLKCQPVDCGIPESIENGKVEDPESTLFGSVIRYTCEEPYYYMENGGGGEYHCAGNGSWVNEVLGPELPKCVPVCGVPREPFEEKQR

The test addresses Human complement C1s enzyme (Homo sapiens (Human), UniProt P09871). As to the kind of experiment: Human C1s enzyme assay. The class given is biochemical. The conditions noted are these: Human complement C1s enzyme 1.16 nM, substrate Z-L-Lys-SBzl 100 μM, assay of Example 3; read-out: IC50 (Stars). A digest of the protocol:
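IC50 derived by nonlinear regression of rate versus concentration, with rate taken from A405 kinetics (30 s intervals, 30 min) after adding 100 μM each Z-L-Lys-SBzl and DTNB. C1s from human serum, 1.16 nM, exposed to compound for 5 min at RT beforehand; buffer 50 mM Tris, 1 M NaCl, pH 7.5.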
For the compound `NC(=O)Nc1csc(CNC(=O)[C@@H]2CC3(CN2C(=O)CNC(=O)c2ccc(Oc4ccc(F)cc4)cc2)OCCO3)c1` [Compound 317, (S)-7-((4-(4-fluorophenoxy)benzoyl)glycyl)-N-((4-ureidothiophen-2-yl)methyl)-1,4-dioxa-7-azaspiro[4.4]nonane-8-carboxamide], the pIC50 (usually −log10 of the IC50, conventionally taken in molar units) is < 6.00. The figure for `NCCCCNc1csc(CNC(=O)[C@@H]2CC3(CN2C(=O)CNC(=O)c2ccc(Oc4ccc(F)cc4)cc2)OCCO3)c1` [Compound 318, (S)-N-((4-((4-aminobutyl)amino)thiophen-2-yl)methyl)-7-((4-(4-fluorophenoxy)benzoyl)glycyl)-1,4-dioxa-7-azaspiro[4.4]nonane-8-carboxamide] is < 6.00; for `Nc1c(Nc2csc(CNC(=O)[C@@H]3CC4(CN3C(=O)CNC(=O)c3ccc(Oc5ccc(F)cc5)cc3)OCCO4)c2)c(=O)c1=O` [Compound 319, (S)-N-((4-((2-amino-3,4-dioxocyclobut-1-en-1-yl)amino)thiophen-2-yl)methyl)-7-((4-(4-fluorophenoxy)benzoyl)glycyl)-1,4-dioxa-7-azaspiro[4.4]nonane-8-carboxamide] it is < 6.00; for `NCCCC(=O)Nc1csc(CNC(=O)[C@@H]2CC3(CN2C(=O)CNC(=O)c2ccc(Oc4ccc(F)cc4)cc2)OCCO3)c1` [Compound 320, (S)-N-((4-(4-aminobutanamido)thiophen-2-yl)methyl)-7-((4-(4-fluorophenoxy)benzoyl)glycyl)-1,4-dioxa-7-azaspiro[4.4]nonane-8-carboxamide] it is < 6.00.

Take `C[C@@H](NC(=O)[C@@H]1CC2(CN1C(=O)Cc1ccc(-c3ccc(F)cc3F)cc1)OCCO2)c1cc(C(=N)N)cs1` [Compound 321, (S)—N—((R)-1-(4-carbamimidoylthiophen-2-yl)ethyl)-7-(2-(2′,4′-difluoro-[1,1′-biphenyl]-4-yl)acetyl)-1,4-dioxa-7-azaspiro[4.4]nonane-8-carboxamide]: the pIC50 is > 7.00. As to `C[C@@H](NC(=O)[C@@H]1C[C@H](C(F)(F)F)CN1C(=O)CNC(=O)c1ccc2c(c1)-c1ccccc1C2(F)F)c1cc(C(=N)N)cs1` [Compound 322, (2S,4S)—N—((R)-1-(4-carbamimidoylthiophen-2-yl)ethyl)-1-((9,9-difluoro-9H-fluorene-3-carbonyl)glycyl)-4-(trifluoromethyl)pyrrolidine-2-carboxamide], the pIC50 was > 7.00. For `C[C@@H](NC(=O)[C@@H]1C[C@H](C(F)(F)F)CN1C(=O)CNC(=O)c1ccc(Oc2ccc(F)cc2)cc1)c1cc(C(=N)N)cs1` [Compound 323, (2S,4S)—N—((R)-1-(4-carbamimidoylthiophen-2-yl)ethyl)-1-((4-(4-fluorophenoxy)benzoyl)glycyl)-4-(trifluoromethyl)pyrrolidine-2-carboxamide] the value was > 7.00; for `C[C@@H](NC(=O)[C@@H]1C[C@@H](C(F)(F)F)CN1C(=O)CNC(=O)c1ccc2c(c1)-c1ccccc1C2(F)F)c1cc(C(=N)N)cs1` [Compound 324, (2S,4R)—N—((R)-1-(4-carbamimidoylthiophen-2-yl)ethyl)-1-((9,9-difluoro-9H-fluorene-3-carbonyl)glycyl)-4-(trifluoromethyl)pyrrolidine-2-carboxamide], > 7.00; for `Cc1c2ccccc2cc2cc(C(=O)NCC(=O)N3CC4(C[C@H]3C(=O)N[C@H](C)c3cc(C(=N)N)cs3)OCCO4)ccc12` [Compound 325, (S)—N—((R)-1-(4-carbamimidoylthiophen-2-yl)ethyl)-7-((10-methylanthracene-2-carbonyl)glycyl)-1,4-dioxa-7-azaspiro[4.4]nonane-8-carboxamide], > 7.00. Regarding `C[C@@H](NC(=O)[C@@H]1C[C@@H](OC(F)F)CN1C(=O)CNC(=O)c1ccc2[nH]c3ccccc3c2c1)c1cc(C(=N)N)cs1` [Compound 326, N-(2-((2S,4R)-2-(((R)-1-(4-carbamimidoylthiophen-2-yl)ethyl)carbamoyl)-4-(difluoromethoxy)pyrrolidin-1-yl)-2-oxoethyl)-9H-carbazole-3-carboxamide], the pIC50 is > 7.00. For `C[C@@H](NC(=O)[C@@H]1C[C@](F)(CF)CN1C(=O)CNC(=O)c1ccc2c(c1)Oc1ccccc1S2)c1cc(C(=N)N)cs1` [Compound 327, (2S,4R)—N—((R)-1-(4-carbamimidoylthiophen-2-yl)ethyl)-4-fluoro-4-(fluoromethyl)-1-((phenoxathiine-3-carbonyl)glycyl)pyrrolidine-2-carboxamide] the value was > 7.00; for `C[C@@H](NC(=O)[C@@H]1C[C@@H](OC(F)F)CN1C(=O)CNC(=O)c1ccc2c(c1)Oc1ccccc1S2)c1cc(C(=N)N)cs1` [Compound 328, (2S,4R)—N—((R)-1-(4-carbamimidoylthiophen-2-yl)ethyl)-4-(difluoromethoxy)-1-((phenoxathiine-3-carbonyl)glycyl)pyrrolidine-2-carboxamide], > 7.00; for `C[C@@H](NC(=O)[C@@H]1C[C@](F)(CF)CN1C(=O)CNC(=O)c1cccc(-c2ccc(F)cc2)c1)c1cc(C(=N)N)cs1` [Compound 329, (2S,4R)—N—((R)-1-(4-carbamimidoylthiophen-2-yl)ethyl)-4-fluoro-1-((4′-fluoro-[1,1′-biphenyl]-3-carbonyl)glycyl)-4-(fluoromethyl)pyrrolidine-2-carboxamide], > 7.00. For `C[C@@H](NC(=O)[C@@H]1C[C@@H](OC(F)F)CN1C(=O)CNC(=O)c1cccc(-c2ccc(F)cc2)c1)c1cc(C(=N)N)cs1` [Compound 330, (2S,4R)—N—((R)-1-(4-carbamimidoylthiophen-2-yl)ethyl)-4-(difluoromethoxy)-1-((4′-fluoro-[1,1′-biphenyl]-3-carbonyl)glycyl)pyrrolidine-2-carboxamide] the value was > 7.00; for `C[C@@H](NC(=O)[C@@H]1CC2(CN1C(=O)CNC(=O)c1ccc3cc4ccccc4nc3c1)OCCO2)c1cc(C(=N)N)cs1` [Compound 331, (S)-7-((acridine-3-carbonyl)glycyl)-N—((R)-1-(4-carbamimidoylthiophen-2-yl)ethyl)-1,4-dioxa-7-azaspiro[4.4]nonane-8-carboxamide], > 7.00; for `C[C@@H](NC(=O)[C@@H]1C[C@@H](S(C)(=O)=O)CN1C(=O)CNC(=O)c1ccc2c(c1)Oc1ccccc1S2)c1cc(C(=N)N)cs1` [Compound 333, (2S,4R)—N—((R)-1-(4-carbamimidoylthiophen-2-yl)ethyl)-4-(methylsulfonyl)-1-((phenoxathiine-3-carbonyl)glycyl)pyrrolidine-2-carboxamide], > 7.00. For `C[C@@H](NC(=O)[C@@H]1C[C@@H](S(C)(=O)=O)CN1C(=O)CNC(=O)c1cccc(-c2ccc(F)cc2)c1)c1cc(C(=N)N)cs1` [Compound 334, (2S,4R)—N—((R)-1-(4-carbamimidoylthiophen-2-yl)ethyl)-1-((4′-fluoro-[1,1′-biphenyl]-3-carbonyl)glycyl)-4-(methylsulfonyl)pyrrolidine-2-carboxamide] the value was > 7.00; for `Cc1ccc(-c2cccc(C(=O)NCC(=O)N3C[C@H](S(C)(=O)=O)C[C@H]3C(=O)N[C@H](C)c3cc(C(=N)N)cs3)c2)cc1` [Compound 335, (2S,4R)—N—((R)-1-(4-carbamimidoylthiophen-2-yl)ethyl)-1-((4′-methyl-[1,1′-biphenyl]-3-carbonyl)glycyl)-4-(methylsulfonyl)pyrrolidine-2-carboxamide], > 7.00. For the compound `C[C@@H](NC(=O)[C@@H]1C[C@](F)(CF)CN1C(=O)CNC(=O)c1ccc2c(c1)-c1ccccc1S2(=O)=O)c1cc(C(=N)N)cs1` [Compound 336, (2S,4R)—N—((R)-1-(4-carbamimidoylthiophen-2-yl)ethyl)-1-((5,5-dioxidodibenzo[b,d]thiophene-2-carbonyl)glycyl)-4-fluoro-4-(fluoromethyl) pyrrolidine-2-carboxamide], the pIC50 was > 7.00. With `C[C@@H](NC(=O)[C@@H]1C[C@@H](OC(F)F)CN1C(=O)CNC(=O)c1ccc2c(c1)-c1ccccc1S2(=O)=O)c1cc(C(=N)N)cs1` [Compound 337, (2S,4R)—N—((R)-1-(4-carbamimidoylthiophen-2-yl)ethyl)-4-(difluoromethoxy)-1-((5,5-dioxidodibenzo[b,d]thiophene-2-carbonyl)glycyl) pyrrolidine-2-carboxamide], the pIC50 was > 7.00.

Turning to `C[C@@H](NC(=O)[C@@H]1CC2(CN1C(=O)Cc1ccc(-c3ccccc3)cc1)OCCO2)c1cc(C(=N)N)cs1` [Compound 338, (S)-7-(2-([1,1′-biphenyl]-4-yl)acetyl)-N—((R)-1-(4-carbamimidoylthiophen-2-yl)ethyl)-1,4-dioxa-7-azaspiro[4.4]nonane-8-carboxamide], the pIC50 was > 7.00. The figure for `C[C@@H](NC(=O)[C@@H]1C[C@@H](S(C)(=O)=O)CN1C(=O)CNC(=O)c1ncc(-c2ccccc2)cc1F)c1cc(C(=N)N)cs1` [Compound 339, N-(2-((2S,4R)-2-(((R)-1-(4-carbamimidoylthiophen-2-yl)ethyl)carbamoyl)-4-(methylsulfonyl)pyrrolidin-1-yl)-2-oxoethyl)-3-fluoro-5-phenylpicolinamide] is > 7.00; for `C[C@@H](NC(=O)[C@@H]1C[C@@H](S(C)(=O)=O)CN1C(=O)CNC(=O)c1ccc2[nH]c3ccccc3c2c1)c1cc(C(=N)N)cs1` [Compound 340, N-(2-((2S,4R)-2-(((R)-1-(4-carbamimidoylthiophen-2-yl)ethyl)carbamoyl)-4-(methylsulfonyl)pyrrolidin-1-yl)-2-oxoethyl)-9H-carbazole-3-carboxamide] it is > 7.00; for `C[C@@H](NC(=O)[C@@H]1C[C@](F)(CF)CN1C(=O)CNC(=O)c1ccc2[nH]c3ccccc3c2c1)c1cc(C(=N)N)cs1` [Compound 341, N-(2-((2S,4R)-2-(((R)-1-(4-carbamimidoylthiophen-2-yl)ethyl)carbamoyl)-4-fluoro-4-(fluoromethyl)pyrrolidin-1-yl)-2-oxoethyl)-9H-carbazole-3-carboxamide] it is > 7.00.
